Assay results published in PubChem BioAssay (NCI).
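Assay format: 96-well plates, 48-hour exposure. Abbreviation: GI50, concentration required for 50% inhibition of growth. The concentration for full growth arrest is given as TGI.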

Assays:
Assay in all cases: DTP human tumour cell line panel, 48 h
[1] = tested on: HCC-2998 colon
[2] = tested on: MDA-MB-231 breast
[3] = tested on: NCI/ADR-RES ovarian
[4] = tested on: SK-MEL-5 melanoma
[5] = tested on: OVCAR-4 ovarian
[6] = tested on: MDA-MB-435
[7] = tested on: OVCAR-8 ovarian
[8] = tested on: ACHN renal
[9] = tested on: SF-539 CNS
[10] = tested on: SNB-19 CNS

| SMILES | GI50 [1] [µM] | TGI [1] [µM] | GI50 [2] [µM] | TGI [2] [µM] | GI50 [3] [µM] | TGI [3] [µM] | GI50 [4] [µM] | TGI [4] [µM] | GI50 [5] [µM] | TGI [5] [µM] | GI50 [6] [µM] | TGI [6] [µM] | GI50 [7] [µM] | TGI [7] [µM] | GI50 [8] [µM] | TGI [8] [µM] | GI50 [9] [µM] | TGI [9] [µM] | GI50 [10] [µM] | TGI [10] [µM] |
| --- | --- | --- | --- | --- | --- | --- | --- | --- | --- | --- | --- | --- | --- | --- | --- | --- | --- | --- | --- | --- |
| CC1(C)OC2C(COS(N)(=O)=O)SC(n3cnc4cncnc43)C2O1 (stereo not given) | > 100 | > 100 | > 100 | > 100 | > 100 | > 100 | > 100 | > 100 | > 100 | > 100 | > 100 | > 100 | > 100 | > 100 | > 100 | > 100 | > 100 | > 100 | > 100 | > 100 |
| C/C=C1\C(=O)OC2CCN3CCC(COC(=O)C(C)(O)C(C)C1O)C23 (stereo not given) | – | > 100 | – | > 100 | – | > 100 | – | > 100 | – | > 100 | – | > 100 | – | > 100 | – | > 100 | – | > 100 | – | > 100 |
| CC1CCC2N(C1)CC1C3(O)CC45OC6(O)C(O)CCC4(C)C6CCC5C3(O)CC(O)C1(O)C2(C)O (stereo not given) | – | > 100 | – | > 100 | – | > 100 | – | > 100 | – | > 100 | – | > 100 | – | > 100 | – | > 100 | – | > 100 | – | > 100 |
| O=C(Cc1csc2nc(-c3ccc(Br)cc3)cn12)N/N=C/c1ccc(O)cc1 | 14.6 | 29.4 | 10.4 | 43.2 | 21.2 | 61.1 | 7.14 | 22.2 | > 100 | > 100 | 6.27 | 24.3 | 7.07 | 25.9 | 14.7 | 51 | 18.4 | 46.5 | 57.5 | > 100 |
